Laboratory results from US11129801B2 (SigmaThera SAS, priority 2016, dated 2021).

System: rat medium spiny neurons (DARPP32 positive neurons)
Assay: Survival of primary medium spiny neurons injured by glutamate
Type: cell-based
Details: glutamate 40 μM, 20 min
Method: Rat MSN of striatum were cultured as described (Ivkovic S, et al, (1999) The Journal of neuroscience: the official journal of the Society for Neuroscience 19(13): 5409-5419).
Briefly pregnant female rats of 15 days gestation were killed by cervical dislocation (Rats Wistar; Janvier) and the foetuses removed from the uterus. The embryonic midbrains were removed and placed in ice-cold medium of Leibovitz 15 (L15; PanBiotech, Ref P04-27055, Batch: 8810315) containing 2% of Penicillin-Streptomycin (PS; PanBiotech, ref: P06-07100, Batch: 7511015) and 1% of bovine serum albumin (BSA; PanBiotech, Ref: P06-1391100, Batch: H140904). Only the ventral portions of the mesencephalic flexure were used for the cell preparations as this region of the developing brain is rich in dopaminergic neurons. The midbrains were dissociated by trypsinisation for 20 minutes (min) at 37° C. (Trypsin EDTA 1×; PanBiotech, Ref: P10-023100, batch: 1670415). The reaction was stopped by the addition of Dulbecco's modified Eagle's medium (DMEM; PanBiotech, Ref: P04-03600, Batch: 9021115) containing DNase I grade II (0.1 mg/ml; PanBiotech, Ref: P60-37780100, Batch: H140508) and 10% of fetal calf serum (FCS; Invitrogen, Ref: 10270-098, Batch: 41G8542K). Cells were then mechanically dissociated by 3 passages through a 10 ml pipet. Cells were then centrifuged at 180×g for 10 min at 4° C. on a layer of BSA (3.5%) in L15 medium. The supernatant was discarded and the cell pellets were re-suspended in a defined culture medium consisting of Neurobasal (Invitrogen, Ref: 21103, Batch: 1754639) supplemented with B27 (2%; Invitrogen, ref: 17504, batch: 1799273), L-glutamine (2 mM; PanBiotech, Ref: P04-80100, Batch: 6620314) and 2% of PS. Viable cells were counted in a Neubauer cytometer using the trypan blue exclusion test. The cells were seeded at a density of 70000 cells/well in 96 well-plates (pre-coated with poly-D-lysine; Greiner, Ref: E150033VJ) and were cultured at 37° C. in a humidified air (95%)/CO2 (5%) atmosphere. Half of the medium was changed every 2 days with fresh medium. […]

For `CCC(C/C=C/c1ccccc1)(c1ccccc1)N(C)CC1CC1` (single isomer, unassigned; (+)) [igmesine, (+)-(E)-N-(cyclopropylmethyl)-N-methyl-3,6-diphenylhex-5-en-3-amine], the DARPP32 positive neurons (0.3 μM) was 89.28 % of the control and the DARPP32 positive neurons (1 μM) was 81.60 % of the control.

B1: BDNF: Brain-derived neurotrophic factor, used as a reference compound (protein, UniProt P23560 19-247, looked up)
Neurotrophic factor BDNF …: APMKEANIRGQGGLAYPGVRTHGTLESVNGPKAGSRGLTSLADTFEHVIEELLDEDQKVRPNEENNKDADLYTSRVMLSSQVPLEPPLLFLLEEYKNYLDAANMSMRVRRHSDPARRGELSVCDSISEWVTAADKKTAVDMSGGTVTVLEKVPVSKGQLKQYFYETKCNPMGYTKEGCRGIDKRHWNSQCRTTQSYVRALTMDSKKRIGWRFIRIDTSCVCTLTIKRGR
In the case of B1, the DARPP32 positive neurons (10 ng/mL) is reported as 90.14 % of the control.
